Measured values from EPA's ToxRefDB 2.

Experiments:
rat [1] = settings: Multigenerational reproductive toxicity study, sprague dawley, Oral, Gavage/Intubation, dose end: 2 generation
mouse [2] = settings: Multigenerational reproductive toxicity study, other, Oral, Gavage/Intubation, dose end: 21 PND
rat [3] = settings: Subchronic oral toxicity in rodents, fischer, Gavage/Intubation, dose end: 6 month, group: systemic
rat [4] = settings: Combined chronic toxicity/carcinogenicity; fischer; Oral; Gavage/Intubation; dose end: 2 year; group: systemic; systemic / in life observation / body weight / body weight + systemic / pathology microscopic / kidney / nephropathy + systemic / pathology …
rat [5] = settings: Fertility (Segment I), sprague dawley, Oral, Gavage/Intubation, dose end: 0 mating
mouse [6] = settings: Subchronic oral toxicity in rodents, b6c3f1, Gavage/Intubation, dose end: 6 month, group: systemic
rat [7] = settings: Subchronic oral toxicity in rodents, wistar, Water, dose end: 90 day
mouse [8] = settings: Combined chronic toxicity/carcinogenicity, b6c3f1, Oral, Gavage/Intubation, dose end: 2 year, group: systemic
[9] = group: offspring, developmental / offspring survival late / viability index / viability index + systemic / in life observation / body weight / offspring (pup…
[10] = group: offspring, systemic / in life observation / body weight / offspring (pup) weight + systemic / organ weight / liver / absolute + systemic / organ weight…
[11] = group: parental, systemic / in life observation / body weight / body weight + systemic / in life observation / mortality / mortality + systemic / organ …
[12] = group: parental, systemic / in life observation / mortality / mortality + systemic / organ weight / kidney / absolute + systemic / organ weight / kidney / …
[13] = group: reproductive, reproductive / reproductive performance / fertility / fertility + reproductive / offspring survival early / litter size / litter size + …
[14] = group: reproductive, reproductive / reproductive performance / fertility / fertility + reproductive / reproductive performance / implantations / implantations + …
[15] = group: offspring, developmental / offspring survival late / viability index / viability index
[16] = group: parental, systemic / organ weight / kidney / relative to body weight
[17] = group: parental, systemic / organ weight / kidney / relative to body weight + systemic / in life observation / body weight / body weight
[18] = group: reproductive, reproductive / reproductive performance / fertility / fertility
[19] = group: reproductive, reproductive / reproductive performance / fertility / fertility + reproductive / offspring survival early / live fetuses / live fetuses
[20] = systemic / in life observation / body weight / body weight + systemic / clinical chemistry / alanine aminotransferase (alt/sgpt) / alanine …
[21] = group: maternal, reproductive / reproductive performance / implantations / implantations
[22] = group: parental, systemic / clinical chemistry / luteinizing hormone (lh) / luteinizing hormone (lh) + systemic / clinical chemistry / progesterone / …
[23] = group: parental, systemic / in life observation / body weight / body weight gain
[24] = systemic / pathology microscopic / kidney / vacuolization cytoplasmic + systemic / in life observation / body weight / body weight + …
[25] = group: maternal, reproductive / reproductive performance / fertility / fertility + reproductive / reproductive performance / mating / mating
[26] = group: systemic, systemic / organ weight / epididymis / absolute + systemic / organ weight / prostate / absolute + systemic / organ weight / seminal vesicle…
[27] = group: systemic, systemic / pathology gross / sperm measure / sperm count + systemic / pathology gross / sperm measure / sperm motility
[28] = systemic / pathology microscopic / kidney / nephropathy + systemic / pathology microscopic / kidney / vacuolization cytoplasmic
[29] = systemic / pathology microscopic / kidney / nephropathy + systemic / pathology microscopic / kidney / vacuolization cytoplasmic + systemic…

With `[Cl][Hg][Cl]` [Mercuric chloride] the LOAEL (rat [1]; [9]) was greater than 2.5 mg/kg/day, the NOAEL (rat [1]; [9]) was no less than 2.5 mg/kg/day and the LEL (rat [1]; [10]) was 0.5 mg/kg/day. It also gave an NEL (rat [1]; [10]) of less than 0.5 mg/kg/day, an LOAEL (rat [1]; [11]) greater than 2.5 mg/kg/day and an NOAEL (rat [1]; [11]) of no less than 2.5 mg/kg/day. It also gave an LEL (rat [1]; [12]) of 0.5 mg/kg/day, an NEL (rat [1]; [12]) of less than 0.5 mg/kg/day and an LEL (rat [1]; [13]) of 0.5 mg/kg/day. It also gave an NEL (rat [1]; [13]) of less than 0.5 mg/kg/day, an LOAEL (rat [1]; [14]) greater than 2.5 mg/kg/day and an NOAEL (rat [1]; [14]) of no less than 2.5 mg/kg/day. The LEL (mouse [2]; [15]) was 1 mg/kg/day, the LOAEL (mouse [2]; [15]) was greater than 1 mg/kg/day and the NEL (mouse [2]; [15]) was 0.5 mg/kg/day. The NOAEL (mouse [2]; [15]) was no less than 1 mg/kg/day, the LEL (mouse [2]; [16]) was 0.25 mg/kg/day and the NEL (mouse [2]; [16]) was less than 0.25 mg/kg/day. It also gave an LOAEL (mouse [2]; [17]) greater than 1 mg/kg/day, an NOAEL (mouse [2]; [17]) of no less than 1 mg/kg/day and an LEL (mouse [2]; [18]) of 0.25 mg/kg/day. For the same compound, the NEL (mouse [2]; [18]) was less than 0.25 mg/kg/day, the LOAEL (mouse [2]; [19]) was greater than 1 mg/kg/day and the NOAEL (mouse [2]; [19]) was no less than 1 mg/kg/day. The LEL (rat [3]; [20]) was 0.312 mg/kg/day, the NEL (rat [3]; [20]) was less than 0.312 mg/kg/day and the NOAEL (rat [3]; systemic / in life observation / body weight / body weight + systemic / pathology microscopic / kidney / nephropathy + systemic / organ …) was 2.5 mg/kg/day. For the same compound, the LOAEL (rat [3]; systemic / pathology microscopic / kidney / nephropathy) was 5 mg/kg/day, the LEL (rat [4]) was 2.5 mg/kg/day and the LOAEL (rat [4]) was 2.5 mg/kg/day. The NEL (rat [4]) was less than 2.5 mg/kg/day, the NOAEL (rat [4]) was less than 2.5 mg/kg/day and the LEL (rat [5]; [21]) was 2 mg/kg/day. For the same compound, the LOAEL (rat [5]; [21]) was greater than 2 mg/kg/day, the NEL (rat [5]; [21]) was 1 mg/kg/day and the NOAEL (rat [5]; [21]) was no less than 2 mg/kg/day. For the same compound, the LOAEL (rat [5]; [22]) was greater than 2 mg/kg/day, the NOAEL (rat [5]; [22]) was no less than 2 mg/kg/day and the LEL (rat [5]; [23]) was 1 mg/kg/day. For the same compound, the NEL (rat [5]; [23]) was less than 1 mg/kg/day, the LOAEL (mouse [6]; systemic / pathology microscopic / kidney / vacuolization cytoplasmic) was 10 mg/kg/day and the NEL (mouse [6]; [24]) was 2.5 mg/kg/day. The NOAEL (mouse [6]; [24]) was 5 mg/kg/day, the LEL (mouse [6]; systemic / pathology microscopic / kidney / vacuolization cytoplasmic + systemic / organ weight / kidney / absolute) was 5 mg/kg/day and the LEL (rat [7]; [25]) was 5 mg/kg/day. It also gave an LOAEL (rat [7]; [25]) greater than 5 mg/kg/day, an NEL (rat [7]; [25]) of 2.5 mg/kg/day and an NOAEL (rat [7]; [25]) of no less than 5 mg/kg/day. For the same compound, the LOAEL (rat [7]; [26]) was greater than 5 mg/kg/day, the NOAEL (rat [7]; [26]) was no less than 5 mg/kg/day and the LEL (rat [7]; [27]) was 2.5 mg/kg/day. It also gave an NEL (rat [7]; [27]) of less than 2.5 mg/kg/day, an LOAEL (mouse [8]; [28]) of 5 mg/kg/day and an NOAEL (mouse [8]; [28]) of less than 5 mg/kg/day. It also gave an LEL (mouse [8]; [29]) of 5 mg/kg/day and an NEL (mouse [8]; [29]) of less than 5 mg/kg/day.
